Reference: patent publication US20140166543A1, “SYSTEM AND PROCESS FOR RECOVERING BITUMEN FROM OIL SANDS” (Shell Oil Company, priority 2012, published 2014)

Assay: Viscosity of crude blended with dimethyl sulfide (rheometer)
Format: physicochemical
Procedure: The quality of dimethyl sulfide as an oil recovery agent based on the crude oil viscosity lowering properties of dimethyl sulfide was evalulated. Three crude oils having widely disparate viscosity characteristics—an African Waxy crude, a Middle Eastern asphaltic crude, and a Canadian asphaltenic crude—were blended with dimethyl sulfide. A control sample of each crude was prepared containing no dimethyl sulfide, and samples of each crude were prepared and blended with dimethyl sulfide to prepare crude samples containing increasing concentrations of dimethyl sulfide. Each sample of each of the crudes was heated to 60° C. to dissolve any waxes therein and to permit weighing of a homogeneous liquid, weighed, allowed to cool overnight, then blended with a selected quantity of dimethyl sulfide. The samples of the crude/dimethyl sulfide blend were then heated to 60° C. and mixed to ensure homogeneous blending of the dimethyl sulfide in the samples. Absolute (dynamic) viscosity measurements of each of the samples were taken using rheometer and closed cup sensor assembly. Viscosity measurements of each of the samples of the West African waxy crude and the Middle Eastern asphaltic crude were taken at 20° C., 40° C., 60° C., 80° C., and then again at 20° C. after cooling from 80° C., where the second measurement at 20° C. is taken to measure the viscosity without the presence of waxes since wax formation occurs slowly enough to permit viscosity measurement at 20° C. without the presence of wax. Viscosity measurements of each of the samples of the Canadian asphaltenic crude were taken at 5° C., 10° C., 20° C., 40° C., 60° C., 80° C., The measured viscosities for each of the crudes are shown in Tables 3, 4, and 5 below.

Viscosity of Topped Canadian asphaltenic Crude (DMS 1.43 wt. %, 20° C.): 212525 mPa s | Viscosity of Topped Canadian asphaltenic Crude (DMS 1.43 wt. %, 40° C.): 14721 mPa s | Viscosity of Topped Canadian asphaltenic Crude (DMS 1.43 wt. %, 60° C.): 2209 mPa s | Viscosity of Topped Canadian asphaltenic Crude (DMS 1.43 wt. %, 80° C.): 538 mPa s | Viscosity of Topped Canadian asphaltenic Crude (DMS 2.07 wt. %, 20° C.): 134880 mPa s | Viscosity of Topped Canadian asphaltenic Crude (DMS 2.07 wt. %, 40° C.): 10523 mPa s | Viscosity of Topped Canadian asphaltenic Crude (DMS 2.07 wt. %, 60° C.): 1747 mPa s | Viscosity of Topped Canadian asphaltenic Crude (DMS 2.07 wt. %, 80° C.): 427 mPa s | Viscosity of Topped Canadian asphaltenic Crude (DMS 4.87 wt. %, 20° C.): 28720 mPa s | Viscosity of Topped Canadian asphaltenic Crude (DMS 4.87 wt. %, 40° C.): 3235 mPa s | Viscosity of Topped Canadian asphaltenic Crude (DMS 4.87 wt. %, 60° C.): 985 mPa s | Viscosity of Topped Canadian asphaltenic Crude (DMS 4.87 wt. %, 80° C.): 328 mPa s | Viscosity of Topped Canadian asphaltenic Crude (DMS 8.01 wt. %, 20° C.): 5799 mPa s | Viscosity of Topped Canadian asphaltenic Crude (DMS 8.01 wt. %, 40° C.): 982 mPa s | Viscosity of Topped Canadian asphaltenic Crude (DMS 8.01 wt. %, 60° C.): 275 mPa s | Viscosity of Topped Canadian asphaltenic Crude (DMS 8.01 wt. %, 80° C.): 106 mPa s | Viscosity of Topped Canadian asphaltenic Crude (DMS 9.80 wt. %, 20° C.): 2760 mPa s | Viscosity of Topped Canadian asphaltenic Crude (DMS 9.80 wt. %, 40° C.): 571 mPa s | Viscosity of Topped Canadian asphaltenic Crude (DMS 9.80 wt. %, 60° C.): 173 mPa s | Viscosity of Topped Canadian asphaltenic Crude (DMS 9.80 wt. %, 80° C.): 73 mPa s | Viscosity of Topped Canadian asphaltenic Crude (DMS 14.81 wt. %, 5° C.): 1794 mPa s | Viscosity of Topped Canadian asphaltenic Crude (DMS 14.81 wt. %, 10° C.): 1155 mPa s | Viscosity of Topped Canadian asphaltenic Crude (DMS 14.81 wt. %, 20° C.): 548 mPa s | Viscosity of Topped Canadian asphaltenic Crude (DMS 14.81 wt. %, 40° C.): 159 mPa s | Viscosity of Topped Canadian asphaltenic Crude (DMS 14.81 wt. %, 60° C.): 64 mPa s | Viscosity of Topped Canadian asphaltenic Crude (DMS 14.81 wt. %, 80° C.): 32 mPa s | Viscosity of Topped Canadian asphaltenic Crude (DMS 19.78 wt. %, 20° C.): 188 mPa s | Viscosity of Topped Canadian asphaltenic Crude (DMS 19.78 wt. %, 40° C.): 69 mPa s | Viscosity of Topped Canadian asphaltenic Crude (DMS 19.78 wt. %, 60° C.): 33 mPa s | Viscosity of Topped Canadian asphaltenic Crude (DMS 19.78 wt. %, 80° C.): 19 mPa s | Viscosity of Topped Canadian asphaltenic Crude (DMS 29.88 wt. %, 5° C.): 113 mPa s | Viscosity of Topped Canadian asphaltenic Crude (DMS 29.88 wt. %, 10° C.): 81 mPa s | Viscosity of Topped Canadian asphaltenic Crude (DMS 29.88 wt. %, 20° C.): 51 mPa s | Viscosity of Topped Canadian asphaltenic Crude (DMS 29.88 wt. %, 40° C.): 22 mPa s | Viscosity of Topped Canadian asphaltenic Crude (DMS 29.88 wt. %, 60° C.): 13 mPa s | Viscosity of Topped Canadian asphaltenic Crude (DMS 29.88 wt. %, 80° C.): 8 mPa s | Viscosity of Topped Canadian asphaltenic Crude (DMS 39.61 wt. %, 5° C.): 23 mPa s | Viscosity of Topped Canadian asphaltenic Crude (DMS 39.61 wt. %, 10° C.): 20 mPa s | Viscosity of Topped Canadian asphaltenic Crude (DMS 39.61 wt. %, 20° C.): 14 mPa s | Viscosity of Topped Canadian asphaltenic Crude (DMS 39.61 wt. %, 40° C.): 8 mPa s | Viscosity of Topped Canadian asphaltenic Crude (DMS 39.61 wt. %, 60° C.): 6 mPa s | Viscosity of Topped Canadian asphaltenic Crude (DMS 39.61 wt. %, 80° C.): 4 mPa s
Structure (SMILES): CSC [Dimethyl Sulfide, dimethyl sulfide]
